Here are results for 4 compounds from patent US10302632B2, “Macromolecular conjugates for visualization and separation of proteins and cells” (USTAV ORGANICKE CHEMIE A BIOCHEMIE AV CR, V.V.I., priority 2015, dated 2019).

Read-outs that look alike come from different tables or passages of the source. Square brackets hold non-standard residues; d marks the D form. Peptide text beside a SMILES is read from it. Sta = CC(C)C[C@H](N)[C@@H](O)CC(=O)O; AEEA = NCCOCCOCC(=O)O

The target of one test is T1, HIV-1 protease (Human immunodeficiency virus type 1 group M subtype B, UniProt P04585).
T1 construct: HIV-1 protease is a homodimeric aspartic protease
Description: Inhibition of HIV-1 protease activity (spectrophotometric, chromogenic peptide substrate). The format is biochemical. The settings on record: pH 4.7, substrate 16 μM. As to the method: The inhibition analyses were performed by spectrophotometric assay using the chromogenic peptide substrate KARVNle*NphEANle-NH2 as previously described.
The 1 ml reaction mixture contained 100 mM sodium acetate, 300 mM NaCl, pH 4.7, 6.8 pmol of HIV-1 protease and inhibitor in concentrations ranging between 2 and 130 nM. Substrate was added to a final concentration of 16 μM. Afterwards, the hydrolysis of substrate was followed as a decrease in absorbance at 305 nm using a UNICAM UV500 UV-VIS spectrophotometer (Thermo, Cambridge, Mass.). The data were analyzed using the equation for competitive inhibition according to Williams and Morrison. The mechanism of inhibition was determined by analysis of Lineweaver-Burk plots.

Test [1] has as its target T2, recombinant extracellular GCPII (Avi-GCPII) (Homo sapiens, UniProt Q04609).
T2 construct: using a recombinant extracellular GCPII (Avi-GCPII; prepared according to [13]); Avi-tag; made in house
Description: Inhibition of GCPII hydrolytic activity (HPLC assay). The format is biochemical. As to the method:
Inhibitory potency of the inhibitors and polymeric conjugates on the hydrolytic activity of GCPII were tested by HPLC (described in [12]) using a recombinant extracellular GCPII (Avi-GCPII; prepared according to [13]). 210 pg of GCPII was mixed with a solution of 25 mM Bis-Tris propane, 150 mM NaCl, pH 7.4, 0.001% monododecyl(oktaethylenglycol)ether (Affymetrix, Octaethylene glycol monododecyl ether) and inhibitor solution to a total volume of 180 μl in a 96-well plate. Ten different inhibitor concentrations covering the whole inhibition curve were used. Reactions were first incubated 5 min at 37° C., then initiated by addition of 20 μl of pteroyl-bis(L-glutamate) to a final concentration of 400 nM and incubated at 37° C. for 20 min. […] Subsequently, 100 μl of the reaction mixture was analyzed in Agilent 1200 Infinity (Agilent Technologies, Inc.) on an RP-HPLC column Waters Acquity UPLC HSS T3 1.8 μm, 2.1×100 mm (Waters). HPLC analysis was performed isocratically in 2.7% acetonitrile and 97.3% 20 mM phosphate, pH 6.0. Substrate and product absorbance was measured at 281 nm. IC50 values were obtained from GraFit v.5.0.11 (Erithacus Software Ltd.).
Assuming competitive type of inhibition and using the values of KM and kcat, the Ki values for each inhibitor were determined from the Cheng-Prusoff equation [14].

The next test deals with CA-IX (Homo sapiens, UniProt Q16790). Kind of test: Affinity isolation (pull-down) of CA-IX from HT-29 cell lysate. The settings on record: conjugate on Streptavidin Sepharose, Western blot. Set-up: HT-29 cell line endogenously expressing CA-IX; endogenous in cells; host or cells: HT-29. It counts as binding. As to the method:
HT29 cells (cultured in 100 mm Petri dish) endogenously expressing CA-IX were lysed by sonication in a water bath (3 min/0° C.) in 450 μl of 50 mM Tris-HCl, 150 mM NaCl, pH 7.4, 1% Tween 20. Resulting cell lysate was further diluted in 20 mM Tris-HCl, 150 mM NaCl, 0.1% Tween 20, pH 7.4 (TBST) to a final protein concentration of 360 μg/ml. Meanwhile, Conjugate 3 and Conjugate 2 (negative control showing nonspecific binding) were pre-bound to 25 μl of Streptavidin Sepharose (200 nM solution in 200 μl of TBST, 1 hour, 6° C.), and after washing with 3×200 μl TBST, the resin was mixed with 200 μl of HT-29 cell lysate and incubated at 25° C. for 3 hours. The resin was then washed with 3×200 μl of TBST and subsequently, proteins were eluted with 25 μl of sample buffer for SDS-PAGE and with heating to 98° C. for 10 min.
To compare the effectiveness of CA-IX isolation with Conjugate 3, CA-IX was also isolated with M75 antibody. The experiment was performed analogously to experiment with polymeric conjugates: 1 μg of antibody was pre-bound to 20 μl of Protein G Sepharose the procedure followed as described above. […]
After isolation, samples were separated by SDS-PAGE electrophoresis and the gel was blotted to a nitrocellulose membrane (wet blot 100 V/1 hour). […] Chemiluminescence was recorded with ChemiDoc It™ 600 Imaging System (UVP).
(In general: In western blotting, separated proteins are transferred to a membrane and probed.)

The mark [2] stands for this setting: read-out: Ki [nM] towards HIV-1 protease.

T2 sequence (Q04609 44-750 limits assumed): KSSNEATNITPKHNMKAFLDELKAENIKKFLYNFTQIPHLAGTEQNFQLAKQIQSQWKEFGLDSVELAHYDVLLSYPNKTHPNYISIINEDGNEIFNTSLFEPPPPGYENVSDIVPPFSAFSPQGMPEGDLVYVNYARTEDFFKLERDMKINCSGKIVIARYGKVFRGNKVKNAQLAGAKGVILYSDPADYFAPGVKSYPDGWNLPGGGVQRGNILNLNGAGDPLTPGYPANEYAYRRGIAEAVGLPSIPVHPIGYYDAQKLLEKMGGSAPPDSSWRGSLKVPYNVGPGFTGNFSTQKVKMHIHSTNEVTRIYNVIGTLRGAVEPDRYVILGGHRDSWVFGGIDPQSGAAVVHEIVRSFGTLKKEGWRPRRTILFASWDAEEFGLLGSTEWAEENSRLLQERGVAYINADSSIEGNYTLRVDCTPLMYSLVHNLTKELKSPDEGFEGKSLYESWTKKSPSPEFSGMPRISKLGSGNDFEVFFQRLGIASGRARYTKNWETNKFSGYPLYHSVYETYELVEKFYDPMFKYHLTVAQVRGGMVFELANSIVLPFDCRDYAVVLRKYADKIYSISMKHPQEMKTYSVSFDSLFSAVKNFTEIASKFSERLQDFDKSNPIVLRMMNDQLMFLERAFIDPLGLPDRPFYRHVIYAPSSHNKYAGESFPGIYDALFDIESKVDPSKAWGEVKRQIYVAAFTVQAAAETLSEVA

A word on the Ki: it is a dissociation constant, usually derived from enzyme kinetics or from competition with a known ligand. Regarding `CC(C)[C@H](NC(=O)COCCOCCNC(=O)COCCOCCN)C(=O)N[C@@H](Cc1ccccc1)C[C@H](O)[C@H](Cc1ccccc1)NC(=O)OCc1cncs1` [compound C, (5S,6S,8S,11S)-5,8-dibenzyl-6-hydroxy-11-isopropyl-3,10,13,22-tetraoxo-1-(thiazol-5-yl)-2,15,18,24,27-pentaoxa-4,9,12,21-tetraazanonacosan-29-aminium 2,2,2-trifluoroacetate], the Ki on HIV-1 protease (setting [2]) stood at 0.012 ± 0.001 nM; on HIV-1 protease (read-out: Ki towards HIV-1 protease), 0.013 nM.
In the case of `CC(C)C[C@H](NC(=O)[C@H](C)NC(=O)C[C@H](O)[C@H](CC(C)C)NC(=O)[C@@H](NC(=O)[C@@H](NC(=O)COCCOCCNC(=O)COCCOCCN)C(C)C)C(C)C)[C@@H](O)CC(=O)O` [compound D, (19S,22S,25S,26S,30S,33S)-33-((S)-2-carboxy-1-hydroxyethyl)-26-hydroxy-25-isobutyl-19,22-diisopropyl-30,35-dimethyl-8,17,20,23,28,31-hexaoxo-3,6,12,15-tetraoxa-9,18,21,24,29,32-hexaazahexatriacontan-1-aminium] (H-[AEEA][AEEA]VV[Sta]A[Sta]-OH), on HIV-1 protease (setting [2]), the Ki was 590 nM.
For `NCCOCCOCCOCCOCCOCCC(=O)N(CCCC[C@H](NC(=O)N[C@@H](CCC(=O)O)C(=O)O)C(=O)O)Cc1ccc(Br)cc1` [Compound A, (24S,28S)-19-(4-bromobenzyl)-24,28,30-tricarboxy-18,26-dioxo-3,6,9,12,15-pentaoxa-19,25,27-triazatriakontan-1-aminium 2,2,2-trifluoroacetate], the Ki in test [1] is 2030 pM.
Regarding “poly(HPMA-co-Ma-β-Ala-ATTO488-co-Ma-β-Ala-NH-biotin) [Conjugate 2]”, the “affinity isolation / binding of CA-IX from lysate of HT-29 cells” value at CA-IX was “no binding of CA-IX”. Moreover, the “inhibition of the activity of GCPII” value in test [1] is reported as “did not inhibit the activity of GCPII”.
